The record followed here is patent US9642854B2, “Flavanoid compounds and process for preparation thereof” (Council of Scientific & Industrial Research, priority 2009, dated 2017).

What all share (format): cell-based, Helicobacter pylori
For test [1], the system named is H. pylori. Put plainly: Anti H. pylori screening by disc diffusion susceptibility assay. Particulars: 100 and 200 mg/disc (so in the source), 72 h. An outline of the steps:
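Clinical strains HP001, HP002 and ATCC 700392, 43504, 49503 (10^8 CFU/mL) spread on supplemented BHI agar; 5 mm discs loaded with 100 and 200 […] compound in ethanol or DMSO. Zones read after 72 h microaerophilic growth at 37 °C; scored + (10-20 mm), ++ (20-30 mm), +++ (>30 mm), Nil <10 mm.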
For orientation: In agar diffusion tests the substance spreads into inoculated agar from a disc or well.

The subject of test [2] is H. pylori. The description is as above. On the set-up: key: strongly active (diameter>30 mm) and were given a score of 3^+; intermediate active (^˜20-30 mm diameter) and were given a score of 2^+; moderately active (^˜10-20 min diameter) and were given a score of 1^+; not active (>10 mm diameter). Particulars: 100 and 200 μg/disc, majority of the strains. The protocol: (§1) The discs were impregnated with […] of each of the compounds, dissolved either in ethanol or DMSO, and the zone of inhibition was measured after 72 h of growth under microaerophilic conditions at 37° C. Inhibition zone diameter ranging 10-20 mm was given a score of ^+, 20-30 mm as ^++ and that of >30 mm as ^+++, as obtained employing dose range of […]/disc. The detailed structural information of the molecules is provided under ‘Description of the Compounds’.
(§2) Methods and protocols for the determination of inhibition zone diameter are as stated under Experiment 1, and that of MIC values by microbroth dilution assay as in Experiment 3. ‘Nil’ means zone of inhibition below 10 mm.
(§3) The anti H. pylori activity of all 16 flavonoid molecules, 2 naturally isolated and 14 synthetic derivatives, was screened by disc diffusion sensitivity assay employing 2 clinical strains HP001 and HP002, and three standard strains ATCC® 700392, 43504 and 49503. A 0.5 mL inoculum (10^8 CFU/mL) for each bacterial strain tested was flooded on freshly prepared Brain Heart Infusion (BHI) agar plates supplemented with 7% FCS, 0.5% IsoVitalex and 0.0025% DENT® and the discs (5 mm diameter) containing different compounds or antibiotics (dissolved either in ethanol or DMSO) were placed on the agar surface. After incubation for 3 days in a microaerophilic atmosphere at 37° C., the diameter of the zone of inhibition was measured (Glupczynsky, 1996; McNulty et al., 2002).

For test [3], the system named is H. pylori. The description is as above. On the set-up: key: strongly active (3^+, diameter>30 mm); intermediate active (2^+, ˜20-30 mm diameter); moderately active (1^+, ˜10-20 mm diameter); not active (<10 mm diameter). The following applies: two doses, majority of the strains. The method, then:
as §1, §2, §3

For test [4], the system named is H. pylori. Description: Anti H. pylori spectrum (MIC) by agar dilution method. The following applies: for MIC50: MIC against 50% of the strains of the panel; for MIC Range: panel of 6 clinical isolates and 4 standard strains. The method, boiled down:
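Agar dilution per CLSI against six clinical isolates and four standard strains on BHI agar with 7% FCS, 0.5% IsoVitalex and DENT. Inoculum ~10^8 CFU/mL; 2-fold compound dilutions from 1.56-100; 72 h microaerophilic at 37 °C. MIC read visually as no growth, in duplicate; MIC50 covers 50% of strains.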
In general terms: In agar dilution the substance is mixed into plates at graded concentrations.

As for `O=c1cc(-c2ccccc2)oc2cc(O)cc(O)c12` [Chrysin, 5,7-Dihydroxy-2-phenyl-chromen-4-one, reference compound], the “Inhibition zone diameter (score)” value in the test with H. pylori [1] (ATCC standard strain 43504), in the test on H. pylori [1] (ATCC standard strain 49503), in the test with H. pylori [1] (ATCC standard strain 700392), in the test with H. pylori [1] (clinical strain HP001) and with H. pylori [1] (clinical strain HP002) was “Nil (‘Nil’ means zone of inhibition below 10 mm)” throughout. Moreover, the “Activity class by inhibition zone diameter” value in the test with H. pylori [2] and with H. pylori [3] was “not active” each time. Moreover, the MIC50 entry with H. pylori [4] is listed as “much higher”. In the test with H. pylori [4], the “MIC Range” value is “much higher”.

As to `CN(C)CCCCCCOc1cc(O)c2c(=O)cc(-c3ccccc3)oc2c1` [CHN-1, 7-(6-Dimethylamino-hexyloxy)-5-hydroxy-2-phenyl-chromen-4-one], the “Inhibition zone diameter (score)” value in the test on H. pylori [1] (ATCC standard strain 43504), with H. pylori [1] (ATCC standard strain 49503), in the test with H. pylori [1] (ATCC standard strain 700392), in the test on H. pylori [1] (clinical strain HP001) and in the test on H. pylori [1] (clinical strain HP002) was “Nil (‘Nil’ means zone of inhibition below 10 mm)” throughout. The “Activity class by inhibition zone diameter” value with H. pylori [2] and with H. pylori [3] was “not active” each time.

On to “4-methyl-benzoic acid 5-hydroxy-6-methoxy-4-oxo-2-phenyl-4-H-chromen-yl ester [ORPM-1]”, for which the “Inhibition zone diameter (score)” value in the test on H. pylori [1] (ATCC standard strain 43504) is “Nil (‘Nil’ means zone of inhibition below 10 mm)”; in the test with H. pylori [1] (ATCC standard strain 49503), “Nil (‘Nil’ means zone of inhibition below 10 mm)”; with H. pylori [1] (ATCC standard strain 700392), “Nil (‘Nil’ means zone of inhibition below 10 mm)”; in the test with H. pylori [1] (clinical strain HP001), “+ (Inhibition zone diameter ranging 10-20 mm was given a score of ^+)”; with H. pylori [1] (clinical strain HP002) it was “Nil (‘Nil’ means zone of inhibition below 10 mm)”. Moreover, the “Activity class by inhibition zone diameter” value with H. pylori [2] and with H. pylori [3] was “not active” in each case.

With `O=c1cc(-c2ccccc2)oc2cc(OCCCN3CCOCC3)cc(O)c12` [CHM-2, 5-Hydroxy-7-(3-morpholin-4-yl-propoxy)-2-phenyl-chromen-4-one], the “Inhibition zone diameter (score)” value in the test on H. pylori [1] (ATCC standard strain 43504), in the test on H. pylori [1] (ATCC standard strain 49503), with H. pylori [1] (ATCC standard strain 700392), with H. pylori [1] (clinical strain HP001) and in the test on H. pylori [1] (clinical strain HP002) was “Nil (‘Nil’ means zone of inhibition below 10 mm)” in each case. Also, the “Activity class by inhibition zone diameter” value with H. pylori [2] and with H. pylori [3] was “not active” in each case.

As to `COc1c(O)cc2oc(-c3ccccc3)cc(=O)c2c1O` [Oroxylin A, reference compound], the “Inhibition zone diameter (score)” value in the test on H. pylori [1] (ATCC standard strain 43504), with H. pylori [1] (ATCC standard strain 49503), with H. pylori [1] (ATCC standard strain 700392), with H. pylori [1] (clinical strain HP001) and in the test on H. pylori [1] (clinical strain HP002) was “Nil (‘Nil’ means zone of inhibition below 10 mm)” in each case. Moreover, the “Activity class by inhibition zone diameter” value with H. pylori [2] and with H. pylori [3] was “not active” in each case. In the test with H. pylori [4], the MIC50 result is recorded as “much higher”. Further, the “MIC Range” value against H. pylori [4] is given as “much higher”.
